One may read the Ki as a measure of affinity in units of concentration, obtained from inhibition or displacement.

Experimental findings from ChEMBL document CHEMBL1141924 (Bioorg Med Chem Lett, 2005) are described below.

In this test the target is Carbonic anhydrase V (Homo sapiens, UniProt Q9Y2D0+P35218).

In the case of `CC1(C)O[C@@H]2[C@@H](CO[C@@]3(COS(N)(=O)=O)OC(C)(C)O[C@@H]23)O1` [TOPIRAMATE], the inhibition constant (Ki) is 0.0254 µM.
